The source of these data is paper PMC9421654, “Discovery of Substituted Di(pyridin-2-yl)-1,2,4-thiadiazol-5-amines as Novel Macrofilaricidal Compounds for the Treatment of Human Filarial Infections” (Journal of Medicinal Chemistry, 2022).

By efflux ratio is commonly meant a quotient of directional permeabilities that is used to spot active efflux. As usually defined, the CC50 is the concentration giving 50% cytotoxicity. Higher therefore signals lower toxicity to the cells. In general, IC50 refers to the concentration needed to halve the response being measured. Broadly, the clearance is the volume of plasma or blood freed of the substance per unit of time. A high value points to efficient removal. As a reminder, the AUC(0-inf) is total exposure, with the tail of the curve extrapolated. Low readings indicate less exposure, high ones more exposure. The term Cmax denotes the peak of the concentration-time curve. For orientation: Tmax means the time from dosing to the highest level. The bioavailability is dose-corrected exposure relative to a reference, in per cent.

The nature of one data set: in vitro. The conditions noted are these: human, Caco-2.
Data set [1] is described as follows: Plasma protein binding, human. The conditions noted are these: read-out: Plasma Protein Binding %, h (converted). The format is in vitro ADME.
The nature of data set [2]: THLE-2 cytotoxicity assay (ATP). The conditions noted are these: human. The method in brief:
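THLE-2 cells in supplemented LHC-8 medium were exposed for 24 or 72 h to final concentrations of 0.01–300 μM. Viability was read as ATP by CellTiter-Glo luminescence and normalized to DMSO vehicle. IC50 came from nonlinear regression of dose-response curves.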

The next data set concerns the target T1, hERG (Homo sapiens, UniProt Q12809).
T1 construct: expressed in transfected cells
Briefly: hERG inhibition. The conditions noted are these: human. In kind it is cell-based. In general terms: Block of hERG is tested as a sign of cardiac risk.

Another data set has as its target CYP2D6 (Homo sapiens, UniProt P10635). Put plainly: Cytochrome P450 inhibition, 2D6. The conditions noted are these: read-out: Cytochrome P450s IC50, 2D6. In kind it is in vitro ADME.
Another data set addresses CYP2C9 (Homo sapiens, UniProt P11712). Put plainly: Cytochrome P450 inhibition, 2C9. The format is in vitro ADME. The conditions noted are these: read-out: Cytochrome P450s IC50, 2C9.
A further data set can be described thus: Rat pharmacokinetics. The conditions noted are these: in vivo. The source says:
Table S1. Compound 31cross species PK data.

The subject of data set [3] is CEREP receptor, ion channel, transporter panel. Briefly: Eurofins CEREP non-kinase panel, binding. The conditions noted are these: binding at 10 μM. On the procedure:
[36] Eurofins Cerep, Le Bois l’Evêque B.P. 30001, 86 600 Celle l’Evescault, France. Compound binding was calculated as a % inhibition of the binding of a radioactively labeled ligand specific for each target.

Another data set concerns the target CYP2C19 (Homo sapiens, UniProt P33261). Briefly: Cytochrome P450 inhibition, 2C19. The format is in vitro ADME. The conditions noted are these: read-out: Cytochrome P450s IC50, 2C19.
The nature of data set [4]: Plasma protein binding, rat. The format is in vitro ADME. The conditions noted are these: read-out: Plasma Protein Binding %, r (converted).
In another data set the target is T2, CYP1A2 (Homo sapiens, UniProt P05177).
T2 sequence (P05177 1-516): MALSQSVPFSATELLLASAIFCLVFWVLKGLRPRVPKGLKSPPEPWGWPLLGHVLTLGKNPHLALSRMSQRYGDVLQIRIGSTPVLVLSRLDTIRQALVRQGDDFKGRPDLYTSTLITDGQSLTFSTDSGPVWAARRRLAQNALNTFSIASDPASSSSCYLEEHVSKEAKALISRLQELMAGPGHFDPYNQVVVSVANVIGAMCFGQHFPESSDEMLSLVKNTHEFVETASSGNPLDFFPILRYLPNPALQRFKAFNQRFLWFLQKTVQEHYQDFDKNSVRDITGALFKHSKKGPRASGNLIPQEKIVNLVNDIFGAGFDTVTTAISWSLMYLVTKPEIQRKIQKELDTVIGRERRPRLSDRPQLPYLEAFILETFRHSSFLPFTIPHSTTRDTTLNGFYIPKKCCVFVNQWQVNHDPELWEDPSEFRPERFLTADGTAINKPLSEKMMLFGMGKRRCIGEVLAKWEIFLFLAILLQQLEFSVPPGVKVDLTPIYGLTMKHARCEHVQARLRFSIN
Put plainly: Cytochrome P450 inhibition, 1A2. In kind it is in vitro ADME. The conditions noted are these: read-out: Cytochrome P450s IC50, 1A2.

Another data set deals with T3, CYP2C8 (Homo sapiens, UniProt P10632).
T3 sequence (P10632 1-490): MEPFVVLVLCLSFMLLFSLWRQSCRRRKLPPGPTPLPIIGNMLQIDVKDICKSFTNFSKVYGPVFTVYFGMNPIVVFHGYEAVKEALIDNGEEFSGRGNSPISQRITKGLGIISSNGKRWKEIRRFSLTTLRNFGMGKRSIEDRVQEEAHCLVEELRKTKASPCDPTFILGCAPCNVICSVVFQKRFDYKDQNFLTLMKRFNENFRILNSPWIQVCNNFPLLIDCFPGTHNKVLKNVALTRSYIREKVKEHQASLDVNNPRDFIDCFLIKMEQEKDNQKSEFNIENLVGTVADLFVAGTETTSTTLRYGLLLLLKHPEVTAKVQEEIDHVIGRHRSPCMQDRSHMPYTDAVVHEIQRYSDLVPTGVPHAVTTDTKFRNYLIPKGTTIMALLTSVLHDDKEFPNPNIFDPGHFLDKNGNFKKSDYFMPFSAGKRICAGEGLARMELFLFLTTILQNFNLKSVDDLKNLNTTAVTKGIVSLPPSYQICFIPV
Put plainly: Cytochrome P450 inhibition, 2C8. The format is in vitro ADME. The conditions noted are these: read-out: Cytochrome P450s IC50, 2C8.

A further data set in a line: in vivo. The conditions noted are these: dog. From the text: IV formulation vehicle for rat: 15% DMA / 50%PEG / 35% D5W; for dog: 5% DMA /
PO formulation vehicle for mouse and rat: a suspension in 0.5% CMC / 0.25% Tween80, as a
suspension; for dog: a suspension in 0.5% methyl cellulose / 0.25% Tween80

The test system of another data set is TK6 cells. Briefly: Micronucleus test. The format is cell-based. The conditions noted are these: presence and absence of rat liver S9.

Sequence of CYP2D6 (P10635 whole entry): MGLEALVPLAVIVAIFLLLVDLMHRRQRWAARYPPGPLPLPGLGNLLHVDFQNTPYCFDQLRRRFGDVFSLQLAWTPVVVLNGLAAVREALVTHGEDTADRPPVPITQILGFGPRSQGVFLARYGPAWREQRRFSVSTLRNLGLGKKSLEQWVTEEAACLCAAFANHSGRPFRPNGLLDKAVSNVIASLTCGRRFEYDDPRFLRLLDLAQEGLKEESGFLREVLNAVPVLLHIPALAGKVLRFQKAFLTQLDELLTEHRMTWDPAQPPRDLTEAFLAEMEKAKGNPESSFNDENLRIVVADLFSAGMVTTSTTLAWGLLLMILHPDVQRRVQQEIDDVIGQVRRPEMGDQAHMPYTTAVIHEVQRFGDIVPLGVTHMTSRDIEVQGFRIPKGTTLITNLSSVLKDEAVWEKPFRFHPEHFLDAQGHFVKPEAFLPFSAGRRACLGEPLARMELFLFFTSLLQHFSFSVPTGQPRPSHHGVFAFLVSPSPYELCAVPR
Sequence of CYP2C9 (P11712 whole entry): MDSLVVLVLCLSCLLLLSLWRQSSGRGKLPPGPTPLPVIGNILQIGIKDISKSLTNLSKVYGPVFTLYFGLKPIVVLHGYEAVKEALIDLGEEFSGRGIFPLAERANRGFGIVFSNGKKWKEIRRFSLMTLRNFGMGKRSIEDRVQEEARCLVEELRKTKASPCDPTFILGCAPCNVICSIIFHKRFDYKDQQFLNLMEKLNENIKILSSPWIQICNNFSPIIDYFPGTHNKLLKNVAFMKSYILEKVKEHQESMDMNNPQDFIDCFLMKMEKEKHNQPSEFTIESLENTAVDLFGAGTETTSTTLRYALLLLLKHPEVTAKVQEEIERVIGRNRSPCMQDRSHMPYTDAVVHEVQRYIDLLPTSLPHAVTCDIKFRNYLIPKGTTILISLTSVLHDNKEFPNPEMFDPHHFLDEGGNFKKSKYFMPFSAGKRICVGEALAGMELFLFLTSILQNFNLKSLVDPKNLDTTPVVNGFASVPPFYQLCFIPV
Sequence of CYP2C19 (P33261 whole entry): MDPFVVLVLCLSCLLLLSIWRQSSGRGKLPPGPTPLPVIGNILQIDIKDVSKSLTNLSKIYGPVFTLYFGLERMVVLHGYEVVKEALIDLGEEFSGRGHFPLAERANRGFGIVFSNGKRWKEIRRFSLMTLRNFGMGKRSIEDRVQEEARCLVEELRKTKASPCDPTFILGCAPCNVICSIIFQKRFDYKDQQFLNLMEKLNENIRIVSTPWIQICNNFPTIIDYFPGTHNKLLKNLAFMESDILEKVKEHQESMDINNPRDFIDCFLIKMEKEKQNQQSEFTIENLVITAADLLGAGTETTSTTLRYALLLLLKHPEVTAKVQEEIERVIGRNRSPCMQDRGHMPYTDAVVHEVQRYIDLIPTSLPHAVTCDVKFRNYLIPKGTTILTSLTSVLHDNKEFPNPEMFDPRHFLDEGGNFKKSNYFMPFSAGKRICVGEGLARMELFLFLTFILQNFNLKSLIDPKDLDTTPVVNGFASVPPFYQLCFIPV
T1 sequence (Q12809 whole entry): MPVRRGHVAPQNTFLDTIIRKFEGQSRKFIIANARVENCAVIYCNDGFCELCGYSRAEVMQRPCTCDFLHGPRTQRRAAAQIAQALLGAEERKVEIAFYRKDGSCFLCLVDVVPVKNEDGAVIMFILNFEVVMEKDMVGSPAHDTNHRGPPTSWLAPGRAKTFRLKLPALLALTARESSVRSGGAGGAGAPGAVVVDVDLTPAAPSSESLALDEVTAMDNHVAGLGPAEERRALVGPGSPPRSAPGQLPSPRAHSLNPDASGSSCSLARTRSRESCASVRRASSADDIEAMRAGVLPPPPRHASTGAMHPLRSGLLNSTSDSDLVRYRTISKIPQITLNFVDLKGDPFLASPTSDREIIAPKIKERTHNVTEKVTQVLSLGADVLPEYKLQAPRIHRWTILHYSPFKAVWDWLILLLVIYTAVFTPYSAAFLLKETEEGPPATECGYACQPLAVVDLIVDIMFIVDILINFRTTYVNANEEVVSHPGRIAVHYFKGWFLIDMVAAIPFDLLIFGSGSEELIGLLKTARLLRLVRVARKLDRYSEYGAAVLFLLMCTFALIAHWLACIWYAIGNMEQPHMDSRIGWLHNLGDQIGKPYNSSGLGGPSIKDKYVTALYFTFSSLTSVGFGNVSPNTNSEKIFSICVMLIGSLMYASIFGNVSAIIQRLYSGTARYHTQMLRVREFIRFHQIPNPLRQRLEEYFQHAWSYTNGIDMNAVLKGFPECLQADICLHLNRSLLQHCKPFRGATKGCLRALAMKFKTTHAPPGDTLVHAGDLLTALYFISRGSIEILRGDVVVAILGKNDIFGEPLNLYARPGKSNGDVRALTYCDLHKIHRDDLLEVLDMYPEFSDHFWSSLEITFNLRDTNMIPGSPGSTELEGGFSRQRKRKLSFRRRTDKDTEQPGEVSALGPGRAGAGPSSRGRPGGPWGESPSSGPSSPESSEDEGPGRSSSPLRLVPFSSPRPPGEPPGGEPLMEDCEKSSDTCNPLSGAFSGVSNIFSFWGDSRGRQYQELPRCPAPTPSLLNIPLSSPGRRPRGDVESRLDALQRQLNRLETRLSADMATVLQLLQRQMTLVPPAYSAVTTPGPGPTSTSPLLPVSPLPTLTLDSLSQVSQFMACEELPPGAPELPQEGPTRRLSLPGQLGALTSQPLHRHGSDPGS

Regarding `Cc1cccnc1Nc1nc(-c2ccc(OC3CCN(C4CC4)CC3)cn2)ns1` [Compound 19, 3-[5-[(1-Cyclopropyl-4-piperidyl)oxy]-2-pyridyl]-N-(3-methyl-2-pyridyl)-1,2,4-thiadiazol-5-amine], in “in vitro”, the efflux ratio amounted to 0.9.
On to `CC(C)Oc1ccc(-c2nsc(Nc3ncccc3N(C)C)n2)nc1` [Compound 31, N^2-(3-(5-Isopropoxypyridin-2-yl)-1,2,4-thiadiazol-5-yl)-N3,N3-dimethylpyridine-2,3-diamine], for which the fraction unbound in data set [1] and in [4] was less than 0.01 each time. The midpoint of cytotoxicity in data set [2], the CC50, lay at 36 µM. For the same compound, the IC50 is 11.4 µM against hERG; more than 30 µM on CYP2D6; 5.5 µM on CYP2C9; 20 µM on CYP2C19; more than 30 µM on CYP1A2; 7.1 µM at CYP2C8. Also, the clearance in “Rat pharmacokinetics” (iv, i.v. 2 mg/kg, mean ±SD) was 8.22 ± 2.72 mL/min/kg; in “in vivo” (iv, 2 mg/kg), 18.8 ± 2.7 mL/min/kg. The Vd in “Rat pharmacokinetics” (iv, i.v. 2 mg/kg, read-out: Vss) came out at 2.07 ± 0.92 L/kg; in the data set “in vivo” (iv, 2 mg/kg), 3.08 ± 0.03 L/kg. Besides, the AUC(0-inf) in the data set “Rat pharmacokinetics” (po, p.o. 10 mg/kg) amounted to 38.1 ± 5.1 µM·h; in “in vivo” (po, 3 mg/kg) it was 4.02 ± 1.03 µM·h. For the same compound, the Cmax in “Rat pharmacokinetics” (po, p.o. 10 mg/kg) was 6.28 ± 0.9 µM; in the data set “in vivo” (po, 3 mg/kg), 1.41 ± 0.53 µM. Moreover, the Tmax in “Rat pharmacokinetics” (po, p.o. 10 mg/kg) was found to be 2 h; in the data set “in vivo” (po, 3 mg/kg), 1.2 ± 0.8 h. The bioavailability in the data set “Rat pharmacokinetics” (po, p.o. 10 mg/kg) stood at 63 ± 20%; in “in vivo” (po, 3 mg/kg), 55 ± 21%. The “CEREP receptor, ion channel, transporter panel: targets bound / tested” value in data set [3] (targets with >70%) is on record as 5/76.
On to `CC(=O)N(C)c1cccnc1Nc1nc(-c2ccc(OC(C)C)cn2)ns1` [Compound 47, N-(2-((3-(5-Isopropoxypyridin-2-yl)-1,2,4-thiadiazol-5-yl)amino)pyridin-3-yl)-N-methylacetamide], for which the figures for the fraction unbound in data set [1] and in [4] were 0.093 and 0.05, respectively. Also, in data set [2], half-maximal cytotoxicity (CC50) was put at 106 µM. The IC50 against hERG was more than 30 µM; at CYP2D6, 30 µM; at CYP2C9, 5.7 µM; at CYP2C19, 29 µM; at CYP1A2 it was more than 30 µM; at CYP2C8, more than 30 µM. Moreover, the “CEREP receptor, ion channel, transporter panel: targets bound / tested” value in [3] (targets with >50%) is on record as 1/76. In addition, the micronucleus result in the data set with TK6 cells was “negative”.
